In assay [1] the test system is Botrytis cinerea spores. As to the kind of experiment: Spore adhesion assay in polystyrene counting vials (Coulter Counter). The class given is cell-based. Conditions: Botrytis cinerea, 25°C, 5.5 h, read-out: Inhn. of Spore Adhesion (EC50, ppm) Counting vials. As to the method:
(§1) Botrytis cinerea was grown at room temperature under fluorescent lights on potato dextrose agar (PDA), and subcultured every 14 days. To prepare spore suspensions, 20 ml sterile milliQ™ water was added to plates (10-14 days old) and the surface scraped gently with a sterile loop. The fluid was filtered through glass wool to remove mycelial fragments, then the spore density was adjusted to the desired concentration.
Various fungicides were evaluated for their abilities to inhibit germination-associated spore adhesion to polystyrene counting vials, polymethylpentene (Permanox®) chamber slides and 96-well flat-bottomed polystyrene microtiter plates, and for their effects on spore germination and mycelial growth (table below). Adhesion assays in chamber slides and germination assays were performed as in Example 1 with incubation at 25°C for 5.5 h. Adhesion assays in counting vials were conducted in 20 ml capacity polystyrene counting vials (VWR cat. no. 14310-640). Counting vials received 5 µl of DMSO (controls) or test compound dissolved in DMSO, followed by 500 µl of SDB. Aqueous spore suspension (500 µl) at 200,000 spores/ml was added, mixed gently and the vials or slides incubated at 25°C for 5.5 h. To determine the numbers of unbound spores 15 ml of counting fluid was added, vials were capped and inverted gently 5 times, then counted using a Coulter Counter®.

The test system of assay [2] is Botrytis cinerea spores. As to the kind of experiment: Spore adhesion assay in 96-well polystyrene microtiter plates (sulforhodamine B). It is filed as cell-based. The following applies: Botrytis cinerea, 25°C, 5.5 hours, read-out: Inhn. of Spore Adhesion (EC50, ppm) Microtiter plates. On the procedure:
as §1
(§2) For adhesion assays in microtiter plates, stock solutions of test compounds were prepared in DMSO then diluted in SDB such that the DMSO concentration after dilution was ≤2%. Two-fold serial dilutions of these test compound solutions were made in SDB (100 µl) in 96-well flat-bottomed microtiter plates. Spore suspension (100 µl at 2X10^5 spores/ml) was added to the wells, and the plates were incubated at 25°C for 5.5 hours. The medium containing unbound spores was removed by inverting and flicking the microtiter plate to remove as much liquid as possible.

In assay [3] the test system is Botrytis cinerea spores. As to the kind of experiment: microbe, parasite or virus in culture. The class given is cell-based. The following applies: Botrytis cinerea, 5.5 h, read-out: Inhn. of Spore Adhesion (EC50, ppm) Chamber Slides.
Assay [4] deals with Botrytis cinerea spores. Kind of assay: Spore germination assay (microscopic examination). The class given is cell-based. Conditions: Botrytis cinerea; 25°C, 5.5 h; read-out: Inhn. of Germination EC50 (ppm).
Assay [5] deals with Botrytis cinerea spores. Kind of assay: Spore adhesion to Plexiglas chamber slides. The class given is cell-based. On the procedure:
Assays were conducted in custom-made chamber slides made of Plexiglas®. Chamber slide wells received 5 µl of DMSO (controls) or kresoxim-methyl dissolved in DMSO, followed by 500 µl of SDB. Aqueous spore suspension (500 µl) at 200,000 spores/ml was added, mixed gently and the vials or slides incubated at 25°C for the desired period. The number of nonadhered spores was determined by transferring the fluid to a counting vial, washing the chamber slide well once by adding 1 ml of counting fluid to the well, shaking gently, and then adding the wash to the counting vial. Counting fluid (14 ml) was added to the vial, and the spores counted using a Coulter Counter®. The number of adhered spores was determined by subtracting the number of nonadhered spores from the total number of spores and was expressed as a percentage (% Adhesion).

Assay [6] deals with Botrytis cinerea spores. Kind of assay: Spore adhesion to borosilicate glass vials. The class given is cell-based.
Assay [7] relates to Botrytis cinerea spores. As to the kind of experiment: Spore adhesion to polyethylene vials. It is filed as cell-based.
Assay [8] relates to Botrytis cinerea spores. Kind of assay: Spore adhesion to polypropylene vials. It is filed as cell-based. The following applies: 7 hours.
The test system of assay [9] is Colletotrichum lagenarium spores. Kind of assay: Spore adhesion assay in 96-well polystyrene microtiter plates. It is filed as cell-based. Conditions: SDB with Tween 20 (40 ppm), 8 h. As to the method:
as §2
Colletotrichum lagenarium was grown at 25°C in the dark on potato dextrose agar and subcultured every 7-14 days. To prepare spore suspensions, 15 ml sterile water was added to plates (7-10 days old) and the plates agitated gently on a gyrotary shaker for 10 min to release spores. The resulting spore suspension was filtered through glass wool and adjusted to the desired concentration. Spore adhesion assays and germination assays were conducted as outlined in Example 1 for Botrytis except that the SDB medium contained Tween™ 20 (40 ppm), and the spore inoculum was prepared at 5X10^5 spores/ml. Data in the table below show a time-dependent adhesion of spores to the slide which closely parallels the time-course for spore germination.
Various fungicides were evaluated for their abilities to inhibit spore adhesion in 96-well flat-bottomed polystyrene microtiter plates and Permanox® chamber slides, and for their effects on spore germination and mycelial growth. Assays were conducted as outlined in Example 2 for Botrytis except that the SDB medium contained Tween™ 20 (40 ppm), the spore inoculum was prepared at 5X10^5 spores/ml, and 8 h incubation was used for the adhesion and germination assays. For each compound tested, EC50 values for inhibition of adhesion to microtiter plates and chamber slides were similar. Spore adhesion was sensitive to all compounds which inhibited germination at low concentrations (<0.2 ppm).

Assay [10] shares this test system. It is filed as cell-based. The following applies: SDB with Tween 20 (40 ppm), 8 h.
Assay [11] has the same test system. As to the kind of experiment: Spore germination assay. The class given is cell-based. The following applies: SDB with Tween 20 (40 ppm), 8 h.
Assay [12] deals with Colletotrichum lagenarium. Kind of assay: Mycelial growth inhibition, poison agar assay. The class given is cell-based.
For assay [13], the system named is Aspergillus nidulans spores. As to the kind of experiment: Spore adhesion assay in 96-well polystyrene microtiter plates. The class given is cell-based. Conditions: statement in words. As to the method:
as §2
Various fungicides were evaluated for their abilities to inhibit spore adhesion in 96-well flat-bottomed polystyrene microtiter plates. Adhesion assays were conducted as outlined in Example 2 for Botrytis except that the spore inoculum was prepared at 2X10^6 spores/ml, and plates were incubated at 37°C for 8 h.

Assay [14] deals with Magnaporthe grisea. The class given is cell-based.
In assay [15] the test system is Puccinia recondita. Kind of assay: Germination-associated spore adhesion assay in microtiter plates (sulforhodamine B). It is filed as cell-based.
Assay [16] relates to Botrytis. As to the kind of experiment: Mycelial growth inhibition, poison agar assay. Conditions: Botrytis, 72 h, read-out: Mycelial Growth Inhn. EC50 (ppm).
Method: Inhibition of mycelial growth was evaluated in poison agar assays. A 4-fold dilution series of each fungicide to be tested was prepared in DMSO and 125 µl of each dilution was added to 25 ml of molten malt extract agar (20 g malt extract, 20 g glucose, 1 g peptone and 20 g agar per liter). The medium containing test compound was poured immediately into 9 cm diameter petri dishes. Two replicate plates were used for each treatment. Each plate was inoculated with a 7 mm diameter plug taken from the growing edge of a Botrytis culture on PDA. Colony diameters were measured after growth for 3 days in the dark at 25°C. EC50 values were determined from dose-response curves.

Values after ≈ are worked out from the molar mass of the structure shown.

As to `CO/N=C(/C(=O)OC)c1ccccc1COc1ccccc1C` [Kresoxim-methyl], the EC50 (commonly the concentration giving half of the maximal effect) came to 0.014 µg/mL (≈ 0.0447 µM) in assay [1]; 0.011 µg/mL (≈ 0.0351 µM) in [2]; 0.035 µg/mL (≈ 0.112 µM) in assay [3]; 0.02 µg/mL (≈ 0.0638 µM) in assay [4]; 0.28 µg/mL (≈ 0.894 µM) in assay [16]. Moreover, the “%Adhesion with kresoxim-methyl, 10 ppm” value in assay [5] (7 hours) is on record as 17.4%; in assay [5] (8 hours) it was 26.2%; in assay [6] (6 hours), 23.4%; in assay [6] (7 hours), 29.6%; in [7] (6 hours), 12.7%; in [7] (7 hours) it was 15.1%. In addition, the “%Adhesion with kresoxim-methyl, 10 ppm” value in assay [8] was 18.9%. In addition, the “Inhn. of Adhesion (EC50, ppm) Microtiter plates” value in [9] is on record as 0.026 ppm. Also, the “Inhn. of Adhesion (EC50, ppm) Chamber slides” value in assay [10] was 0.054 ppm. Further, in [11], the “Germination EC50 (ppm)” value amounted to 0.015 ppm. Moreover, in assay [12], the “Mycelial Growth Inhn. EC50 (ppm)” value is recorded as >10 ppm. Further, in [13], the “inhibition of spore adhesion” value is “highly potent inhibitors of spore adhesion”. For the same compound, the “EC50 (ppm)” value turned out to be 0.067 ppm in assay [14] (inhibition of adhesion, YEG, 25°C, 6 hours) and 0.016 ppm in assay [15] (inhibition of adhesion, 0.05% Tween 20, 19°C, 4 hours). The results for the “inhibition of germination-associated adhesion” value in [14] (statement in words) and in [15] (statement in words) were “potent inhibitors of germination-associated adhesion” and “inhibited germination-associated adhesion”, respectively.
